US5527703A (Merck & Co., Inc., priority 1994, dated 1996)

Tests used:
[1] = target: T1, GluClα (Caenorhabditis elegans, UniProt G5EBR3); assay: Glutamate current after IVMPO4 current activation, GluClα injected oocytes; format: cell-based, C. elegans; design: the full-length open reading frame of the GluCl cDNA encoding the GluClα (52,550 kDa) and GluClβ (49,900kDa) subunits; expressed in transfected cells; host or cells: Xenopus laevis oocytes injected with in vitro RNA
T1 sequence (G5EBR3 21-461): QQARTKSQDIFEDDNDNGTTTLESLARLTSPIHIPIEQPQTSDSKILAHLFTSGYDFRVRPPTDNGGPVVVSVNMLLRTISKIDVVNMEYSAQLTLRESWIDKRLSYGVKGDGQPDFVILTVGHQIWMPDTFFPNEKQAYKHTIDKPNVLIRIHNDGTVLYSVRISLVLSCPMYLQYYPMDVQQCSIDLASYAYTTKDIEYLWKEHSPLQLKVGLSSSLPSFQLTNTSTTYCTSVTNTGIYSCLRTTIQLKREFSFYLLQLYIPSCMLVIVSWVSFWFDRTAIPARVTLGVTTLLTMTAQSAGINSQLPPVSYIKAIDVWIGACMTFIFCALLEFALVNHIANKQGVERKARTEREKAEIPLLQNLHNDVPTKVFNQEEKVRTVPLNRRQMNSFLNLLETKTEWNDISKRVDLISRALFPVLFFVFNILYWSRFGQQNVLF
Protocol: (§1) Xenopus laevis oocytes were prepared and injected using standard methods previously described and known in the art [Arena, J. P., Liu. K. K., Paress, P. S. & Cully. D. F. Mol. Pharmacol. 40, 368-374 (1991 ); Arena, J. P., Liu, K. K., Paress, P. S., Schaeffer, J. M. & Cully, D. F. Mol. Brain Res. 15, 339-348 (1992)]. Adult female Xenopus laevis were anesthetized with 0.17% tricaine methanesulfonate and the ovaries were surgically removed and placed in a dish consisting of (mM): NaCl 1 82.5, KCl 2. MgCl2 1, CaCl2 1.8, HEPES 5 adjusted to pH 7.5 with NaOH (OR-2). Ovarian lobes were broken open, rinsed several times, and gently shaken in OR-2 containing 0.2% collagenase (Sigma, Type 1A) for 2-5 hours. […]
(§2) Recordings were made at room temperature 2-10 days after injection. […] Data were acquired and analyzed using PCLAMP with a TL-1 interface (Axon Instruments, Foster City, Calif.). Membrane current at a holding potential of -80 mV was recorded. The amplitude of drug-sensitive current was determined by subtracting the holding current at -80 mV from the peak current obtained in the presence of drug. […] Current/voltage relationships (I/V) and reversal potentials (Erev) were determined using a 1-3 sec voltage ramp over the voltage range of -110 to +80 mV. […]

[2] = target: T2, GluClβ (Caenorhabditis elegans, UniProt Q17328); assay: Modulation of glutamate-sensitive current by IVMPO4, GluClβ injected oocytes; format: cell-based, C. elegans
T2 construct: the full-length open reading frame of the GluCl cDNA encoding the GluClα (52,550 kDa) and GluClβ (49,900kDa) subunits; expressed in transfected cells; host or cells: Xenopus laevis oocytes injected with in vitro RNA
T2 sequence (Q17328 23-434): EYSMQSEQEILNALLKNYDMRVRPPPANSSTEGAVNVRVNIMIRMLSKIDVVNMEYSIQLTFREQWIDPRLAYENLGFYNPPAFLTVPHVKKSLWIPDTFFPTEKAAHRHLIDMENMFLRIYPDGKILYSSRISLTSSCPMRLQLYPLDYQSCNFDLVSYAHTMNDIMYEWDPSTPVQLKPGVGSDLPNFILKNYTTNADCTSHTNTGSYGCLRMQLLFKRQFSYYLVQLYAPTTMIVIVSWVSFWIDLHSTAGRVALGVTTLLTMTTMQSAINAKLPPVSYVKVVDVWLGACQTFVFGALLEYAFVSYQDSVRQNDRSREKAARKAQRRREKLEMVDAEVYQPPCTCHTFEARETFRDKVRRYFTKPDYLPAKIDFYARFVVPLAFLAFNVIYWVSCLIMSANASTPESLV
Protocol: as §1, §2

Row | Compound | lowest glutamate concentrations at which glutamate-sensitive current could be observed ([1]; following IVMPO4 current activation) [µM] | increase in current with glutamate ([1]; prior activation of current with IVMPO4) [%] | reduction of glutamate-sensitive current ([2]; following IVMPO4 1 μM) [%] | potentiation of glutamate response ([2]; homomeric GluClβ channels)
1 | N[C@@H](CCC(=O)O)C(=O)O [glutamate] | 10 | 20±4 | – | –
2 | ivermectin-4-O-phosphate [IVMPO4] | – | – | 88±4 | not potentiated
